Results: patent publication US6518401B2, “Tumor necrosis factor stimulated gene 6 (TSG-6) protein” (New York University, priority 1991, dated 2003)

What was measured:
TSG-12 mRNA = assay: Northern blot analysis of TSG mRNA levels in FS-4 cells; type: cell-based, human; settings: growth arrested FS-4 cells, 2 h; TNF 20 ng/ml, CHX 10 ug/ml, IFN-β 500 U/ml, IFN-γ 100 U/ml, IL-1-α 1 ng/ml, EGF 25 ng/ml, TGF-β 2 ng/ml, poly(I).poly(C) 50 ug/ml, TPA 100 ng/ml, A23187 1 uM, forskolin 10 uM, dBcAMP 100 uM, IBMX 100 uM
Description: (§1) The human diploid FS-4 foreskin fibroblast cell line (Vilcek, J. et al, Proc. Natl. Acad. Sci. USA 70:3909-3913 (1973)) was used at passage level 15 in all experiments. FS-4 cells were grown in Eagle minimal essential medium (E-MEM) supplemented with 6 mM HEPES, 3 mM Tricine, 50 μg/ml gentamicin, and 5% heat inactivated (56° C., 30 min) fetal bovine serum (FBS; GIBCO Laboratories, Grand Island, N.Y.). For experiments, 4×10^6 cells were seeded in 175 cm^2 Falcon flasks, incubated at 37° C., and allowed to grow to confluence over 6 days. The confluent monolayers were washed once with phosphate buffered saline and replenished with E-MEM containing […] FBS. The cultures were incubated in this medium for another 72 h at 37° C. to let the cells become quiescent and then treated with the appropriate agents, as specified herein.
(§2) Cytoplasmic RNA was fractionated on a 1% agarose gel containing formaldehyde and blotted onto Zeta-probe blotting membranes (Bio-Rad Laboratories, Richmond, Calif.). Cytoplasmic RNA was loaded at 10 μg/lane. Prehybridization and hybridization of Northern blots were performed as described (Lin, J.-X. et al, supra). Filters were probed with 32P-labeled cDNA insert from recombinant M13 clones and/or with 32P-labeled internal reference pHe7 insert. Northern blots were quantified with a laser densitometer.
(§3) The increase in mRNA levels ranged from about 3-fold (TSG-21) to over 100-fold (TSG-6 and TSG-8).
(§4) Table 3 provides a summary of a large number of experiments in which levels of mRNAs corresponding to the 8 distinct TSG cDNAs were determined in FS-4 cells exposed to various agents by Northern blot analysis. Three of the mRNAs (corresponding to TSG-8, TSG-12 and TSG-14) were inducible by the protein synthesis inhibitor, cycloheximide (CHX). […] In contrast, induction of the remaining 3 mRNAs by TNF was inhibited or reduced in the presence of CHX. Five of the mRNAs were inducible by IFN-β, but only two of these responded to […]. Simultaneous treatment with IFN-β reduced inducibility of TSG-1 (=IL-8) mRNA by TNF, but increased the inducibility of TSG-6 and TSG-37 mRNAs. All mRNAs were inducible by IL-1 and by the doublestranded RNA poly(I)-poly(C) or the phorbol ester 12-O-tetradecanoyl phorbol 13-acetate (TPA), but the efficiency of induction by these agents varied. Epidermal growth factor (EGF) was moderately efficient in increasing TSG-21 (=collagenase) and TSG-27 (=stromelysin) mRNA levels, and weakly stimulated several other mRNAs. PDGF and transforming growth factor-β (TGF-β) were only weakly effective, as were dibutyryl cyclic AMP (dBcAMP) and the phosphodiesterase inhibitor, isobutyl methyl xanthine (IBMX).

TSG-8 (MCAF) mRNA = assay: as above; type: cell-based, human; settings: growth arrested FS-4 cells, 2 h; TNF 20 ng/ml, CHX 10 ug/ml, IFN-β 500 U/ml, IFN-γ 100 U/ml, IL-1-α 1 ng/ml, EGF 25 ng/ml, TGF-β 2 ng/ml, poly(I).poly(C) 50 ug/ml, TPA 100 ng/ml, A23187 1 uM, forskolin 10 uM, dBcAMP 100 uM, IBMX 100 uM
Description: as §1, §2, §3, §4

TSG-1 (IL-8) mRNA = assay: as above; type: cell-based, human; settings: growth arrested FS-4 cells, 2 h; TNF 20 ng/ml, CHX 10 ug/ml, IFN-β 500 U/ml, IFN-γ 100 U/ml, IL-1-α 1 ng/ml, EGF 25 ng/ml, TGF-β 2 ng/ml, poly(I).poly(C) 50 ug/ml, TPA 100 ng/ml, A23187 1 uM, forskolin 10 uM, dBcAMP 100 uM, IBMX 100 uM
Description: as §1, §2, §3, §4

TSG-6 mRNA = assay: as above; type: cell-based, human; settings: growth arrested FS-4 cells, 2 h; TNF 20 ng/ml, CHX 10 ug/ml, IFN-β 500 U/ml, IFN-γ 100 U/ml, IL-1-α 1 ng/ml, EGF 25 ng/ml, TGF-β 2 ng/ml, poly(I).poly(C) 50 ug/ml, TPA 100 ng/ml, A23187 1 uM, forskolin 10 uM, dBcAMP 100 uM, IBMX 100 uM
Description: as §1, §2, §3, §4

TSG-14 mRNA = assay: as above; type: cell-based, human; settings: growth arrested FS-4 cells, 2 h; TNF 20 ng/ml, CHX 10 ug/ml, IFN-β 500 U/ml, IFN-γ 100 U/ml, IL-1-α 1 ng/ml, EGF 25 ng/ml, TGF-β 2 ng/ml, poly(I).poly(C) 50 ug/ml, TPA 100 ng/ml, A23187 1 uM, forskolin 10 uM, dBcAMP 100 uM, IBMX 100 uM
Description: as §1, §2, §3, §4

TSG-37 (MT-II) mRNA = assay: as above; type: cell-based, human; settings: growth arrested FS-4 cells, 2 h; TNF 20 ng/ml, CHX 10 ug/ml, IFN-β 500 U/ml, IFN-γ 100 U/ml, IL-1-α 1 ng/ml, EGF 25 ng/ml, TGF-β 2 ng/ml, poly(I).poly(C) 50 ug/ml, TPA 100 ng/ml, A23187 1 uM, forskolin 10 uM, dBcAMP 100 uM, IBMX 100 uM
Description: as §1, §2, §3, §4

[1] = test system: TSG-21 (Collagenase) mRNA; assay: as above; type: cell-based, human; settings: growth arrested FS-4 cells, 16 h of treatment; TNF 20 ng/ml, CHX 10 ug/ml, IFN-β 500 U/ml, IFN-γ 100 U/ml, IL-1-α 1 ng/ml, EGF 25 ng/ml, TGF-β 2 ng/ml, poly(I).poly(C) 50 ug/ml, TPA 100 ng/ml, forskolin 10 uM, IBMX 100 uM
Description: as §1, §2, §3, §4

[2] = test system: TSG-27 (Stromelysin) mRNA; assay: as above; type: cell-based, human; settings: growth arrested FS-4 cells, 16 h of treatment; TNF 20 ng/ml, CHX 10 ug/ml, IFN-β 500 U/ml, IFN-γ 100 U/ml, IL-1-α 1 ng/ml, EGF 25 ng/ml, TGF-β 2 ng/ml, poly(I).poly(C) 50 ug/ml, TPA 100 ng/ml, forskolin 10 uM, IBMX 100 uM
Description: as §1, §2, §3, §4

[3] = Stability of the TSG-6/IαI complex to denaturants and enzymes; type: physicochemical
Description: 100 μL of a TN-5 B insect cell culture supernatant containing TSG-6 protein was incubated with 100 μL of a 1:50 dilution of human serum for 1 hr. at 37° C. Thereafter, one 100-μL aliquot was mixed with 2 mL of 8 M urea and concentrated in a Centricon-10 unit to 100 μL (lane 2); the other aliquot was left untreated (lane 1). The reaction mixtures were then separated by SDS-PAGE and subjected to Western blot analysis with anti-TSG-6 antibody.
Partially purified IαI was incubated in the absence (lane 1) or presence of purified TSG-6 protein (lanes 3-5) at 37° C. for 1 hr. The sample containing both IαI and TSG-6 protein was divided into aliquots and further incubated without enzyme (lane 3), with 800 milliunits of chondroitin sulfate ABC lyase (lane 4), or with 1.6 units of hyaluronidase (lane 5). Lane 2 is a TSG-6 control without IαI. The reaction mixtures were separated by SDS-PAGE and analyzed by Western blotting with anti-TSG-6 antibody.
The Stable Crosslink in the TSG-6/IαI COmplex is Provided by a Gylcosaminoglycan Chain. The stability of the 120 kDa TSG-6/IαI complex during SDS-PAGE under reducing conditions raises the question of the nature of the interaction between TSG-6 and the other components of the complex.
It is known that the three polypeptide chains of IαI are cross-linked by a chondroitin sulfate chain (Enghild et al, J. Biol. Chem. 264:15975-15981 (1989); Jenssen et al, FEBS Lett. 230:195-200 (1988); Balduyck et al, Biol. Chem. Hoppe-Seyler 370:329-336 (1989). It has been shown that bikunin, HC2 of IαLI, and HC3 of pre-α-inhibitor (PαI) are covalently bound to chondroitin 4-sulfate (Enghild et al, J. Biol. Chem. 264:15975-15981 (1989); J. Bio. Chem. 266:747-751 (1991); J. Biol. Chem. 268:8711-8716 (1993). To determine if cross-linking via chondroitin sulfate is also required for the stability of the TSG-6/IαI complex, purified TSG-6 protein and IαI were first incubated together to allow the formation of the complex and then treated with chondroitin sulfate ABC lyase from Proteus vulgaris or hyaluronidase from Streptomyces hyalurolyticus.

| Compound | Relative Increase in mRNA Level TSG-12 (TSG-12 mRNA) | Relative Increase in mRNA Level TSG-8 (MCAF) (TSG-8 (MCAF) mRNA) | Relative Increase in mRNA Level TSG-1 (IL-8) (TSG-1 (IL-8) mRNA) | Relative Increase in mRNA Level TSG-6 (TSG-6 mRNA) | Relative Increase in mRNA Level TSG-14 (TSG-14 mRNA) | Relative Increase in mRNA Level TSG-37 (MT-II) (TSG-37 (MT-II) mRNA) | Relative Increase in mRNA Level TSG-21 (Collagenase) [1] | Relative Increase in mRNA Level TSG-27 (Stromelysin) [2] | stability of the 120-kDa complex to 8 M urea ([3]; 8 M urea added before SDS-PAGE) | stability of the complex to boiling in 2% SDS and 5% β-mercaptoethanol ([3]; SDS-PAGE under reducing conditions) | effect of chondroitin sulfate ABC lyase on the complex ([3]; preformed complex treated with chondroitin sulfate ABC lyase from Proteus vulgaris) | effect of hyaluronidase on the complex ([3]; preformed complex treated with hyaluronidase from Streptomyces hyalurolyticus) | stability of the complex to 8 M guanidine hydrochloride ([3]; treatment with 8 M guanidine hydrochloride, Western blot) |
| --- | --- | --- | --- | --- | --- | --- | --- | --- | --- | --- | --- | --- | --- |
| CNc1ccc2oc(C[C@H]3O[C@@]4(CC[C@H]3C)O[C@H]([C@H](C)C(=O)c3ccc[nH]3)[C@H](C)C[C@H]4C)nc2c1C(=O)O [A23187] | ++ | ++ | + | + | 0 | 0 | – | – | – | – | – | – | – |
| C[C@@H]1C[C@@H]([C@H](O)CC2CC(=O)NC(=O)C2)C(=O)[C@@H](C)C1 [CHX, cycloheximide] | +++ | + | 0 | 0 | + | 0 | 0 | 0 | – | – | – | – | – |
| C=C[C@@]1(C)CC(=O)[C@]2(O)[C@@]3(C)[C@@H](O)CCC(C)(C)[C@@H]3[C@H](O)[C@H](OC(C)=O)[C@@]2(C)O1 [Forskolin, forskolin] | 0 | 0 | 0 | – | 0 | 0 | 0 | 0 | – | – | – | – | – |
| CCCCCCCCCCCCCC(=O)O[C@@H]1[C@@H](C)[C@@]2(O)[C@@H](C=C(CO)C[C@]3(O)C(=O)C(C)=C[C@@H]23)[C@@H]2C(C)(C)[C@]12OC(C)=O [TPA, 12-O-tetradecanoylphorbol 13-acetate] | ++ | ++ | + | + | + | + | ++++ | ++++ | – | – | – | – | – |
| CCCC(=O)Nc1ncnc2c1ncn2[C@@H]1O[C@@H]2COP(=O)(O)O[C@H]2[C@H]1OC(=O)CCC [dBcAMP, N^6-2′-O-dibutyl adenosine cyclic 3′,5′-monophosphate] | + | + | 0 | 0 | 0 | – | – | – | – | – | – | – | – |
| EGF: Epidermal growth factor | + | + | 0 | 0 | + | + | ++ | ++ | – | – | – | – | – |
| IFN-γ: E. coli-derived human gamma interferon | + | ++ | 0 | 0 | 0 | 0 | 0 | 0 | – | – | – | – | – |
| PDGF | + | + | 0 | 0 | + | 0 | 0 | 0 | – | – | – | – | – |
| TGF-β | 0 | – | 0 | 0 | 0 | 0 | 0 | 0 | – | – | – | – | – |
| TSG-6/IαI complex: stable 120 kDa complex containing TSG-6 protein, bikunin and HC2 of IαI | – | – | – | – | – | – | – | – | did not affect | resistance | complete disappearance of the complex | no effect | still detectable |
